Where “and” joins values, the source holds several entries; their conditions need not be identical. Equal values may be shown once. After the bases stand the sugars from the 5' end (letter, count) and the backbone: PS all phosphorothioate, else s phosphorothioate and o phosphodiester by linkage. Methylation of C is not given here. e = 2'-O-(2-methoxyethyl) (MOE); k = constrained ethyl (cEt); d = 2'-deoxy (DNA)

The target in this data set is IRF4. The settings on record: ASO.

Regarding “CACATCAATGTTTTAG (sugars kdddddddddkekeke, PS)”, the target mRNA inhibition (MM.1R, 1 µM) is -2% and 18%. The same measure, in the same setting: next, CCTTACCTGACAAGAA (sugars k3 d10 k3, PS): -11%. Turning to TTGGCCTGCCGGCCTG (sugars k3 d10 k3, PS), the target mRNA inhibition (SK-MEL-28, 4 µM) amounted to 4%.

For the sequence ACCCAAGACTCCCAGA (sugars k3 d10 k3, PS), the target mRNA inhibition (SK-MEL-28, 4 µM) stood at 45%. As to AAAGAAGCAAGTCGGT (sugars k3 d10 k3, PS), the target mRNA inhibition (MM.1R, 1 µM) is -2%.

As to TGGAAACTCCTCTCCA (sugars k3 d10 k3, PS), where the note is “SK-MEL-28, 4 µM”, the target mRNA inhibition was 16%. Take CAAGCTTTCATTTGGG (sugars k3 d10 k3, PS): the target mRNA inhibition (SK-MEL-28, 4 µM) was determined as 74%.

Turning to “TCAGTTTGTGAAGCAT (sugars k2 d9 e3 k2, PS)”, the target mRNA inhibition (MM.1R, 1 µM) turned out to be 39%. Regarding CTCACACACAGGATGT (sugars k3 d10 k3, PS), the target mRNA inhibition (SK-MEL-28, 4 µM) was determined as 18%. In the case of “GTTGGCTGGTCTTTGT (sugars kkdddddddddkdkdk, PS)”, the target mRNA inhibition (MM.1R, 1 µM) amounted to 56%.

For the sequence AGATAACGAGGTGCCT (sugars k3 d10 k3, PS), the target mRNA inhibition (SK-MEL-28, 4 µM) was 23%. As for GCCCAGCAAGAGGCAC (sugars k3 d10 k3, PS), the target mRNA inhibition (SK-MEL-28, 4 µM) turned out to be 7%. Same read-out and setting: the figure for ACCTTATGCTTGGCTC (sugars k4 d8 k4, PS) is 30%. As to GGTCATACCCTGGATC (sugars k3 d10 k3, PS), the target mRNA inhibition (SK-MEL-28, 4 µM) is 49%. As to AGCCGAGGCCTCCTTT (sugars k3 d10 k3, PS), the target mRNA inhibition (MM.1R, 1 µM) was -28%. With CGCAGAGCCAGTAGGG (sugars k3 d10 k3, PS), the target mRNA inhibition was 16% and 4% and 12% (SK-MEL-28, 0.185 µM); 67% (SK-MEL-28, 4 µM); 56% and 59% and 77% (SK-MEL-28, 5 µM); 81% and 82% and 91% (SK-MEL-28, 15 µM). For the sequence GCTAGATAGCATTCTT (sugars k3 d10 k3, PS), where the note is “SK-MEL-28, 4 µM”, the target mRNA inhibition worked out at 56%. As to TAAGGCACTACTTCCA (sugars k3 d10 k3, PS), the target mRNA inhibition (MM.1R, 1 µM) turned out to be 10%. GTAACAGGCTATCAGG (sugars k3 d10 k3, PS): where the note is “SK-MEL-28, 4 µM”, the target mRNA inhibition is 45%. Same read-out and setting: the figure for CTGCAGCCAAGGATAA (sugars k3 d10 k3, PS) is 48%.

Take TACCATGCATAGTGAT (sugars k3 d10 k3, PS): where the note is “SK-MEL-28, 4 µM”, the target mRNA inhibition amounted to 44%. Same read-out and setting: next, ACCTACTCCATCACTT (sugars k3 d10 k3, PS): -3%. Turning to “GGTTGGCTGGTCTTTG (sugars k2 d9 e3 k2, PS)”, the target mRNA inhibition runs as follows: (MM.1R, 0.0625 µM) 44%; (MM.1R, 0.25 µM) 52%; (MM.1R, 1 µM) 69% and 65%; (MM.1R, 4 µM) 84%. In the case of AGAAACGAGTTGACAC (sugars k3 d10 k3, PS), the target mRNA inhibition (SK-MEL-28, 4 µM) worked out at 15%. GACAAGTGGCGCAGAC (sugars k3 d10 k3, PS): the target mRNA inhibition (SK-MEL-28, 4 µM) is 11%. GCTGTCGATCTGGTCG (sugars k4 d8 k4, PS): the target mRNA inhibition (SK-MEL-28, 4 µM) was 6%.

Take AAGCTTGATAAAGGCT (sugars k3 d10 k3, PS): the target mRNA inhibition (MM.1R, 1 µM) is 3%.

Turning to GAGGACCTCGCCTGCG (sugars k3 d10 k3, PS), the target mRNA inhibition (SK-MEL-28, 4 µM) is -2%. Regarding TTACAGCATCTAAGGC (sugars k3 d10 k3, PS), the target mRNA inhibition (SK-MEL-28, 4 µM) was found to be 21%.

As for TTTTAGTTCATACCCA (sugars k3 d10 k3, PS), the target mRNA inhibition (SK-MEL-28, 4 µM) came to 52%. With “ACGGAAGTTTACACTG (sugars kdddddddddkekeke, PS)”, the target mRNA inhibition (MM.1R, 1 µM) stood at 2%.

For the sequence GCATGTTCCTCAAAGC (sugars k3 d10 k3, PS), under “SK-MEL-28, 4 µM”, the target mRNA inhibition was 76%. Regarding TCTGAGTGAGCTTGCC (sugars k3 d10 k3, PS), under “SK-MEL-28, 4 µM”, the target mRNA inhibition was 49%.

On to GCCCAAAGGCTCCCGA (sugars k3 d10 k3, PS), for which, under “SK-MEL-28, 4 µM”, the target mRNA inhibition worked out at 11%.

Consider “TTTATGTTAGCCAATT (sugars k2 d9 e3 k2, PS)”, for which the target mRNA inhibition (MM.1R, 1 µM) was 3% and 21%. GGCTCATGGACATCTG (sugars k3 d10 k3, PS): the target mRNA inhibition (SK-MEL-28, 4 µM) turned out to be 36%.

As for AATATAACGGTGTTTC (sugars k3 d10 k3, PS), the target mRNA inhibition (MM.1R, 1 µM) came to 8%.

“TACTGCTTGAGGTTTT (sugars e1 k2 d9 k2 e2, PS)”: under “MM.1R, 1 µM”, the target mRNA inhibition amounted to 6%. Same read-out and setting: the figure for AGACAGTGCGCCCCAA (sugars k3 d10 k3, PS) is -17%; for CTCATCACCGAACACA (sugars k3 d10 k3, PS) it is 8%. On to TGGGAGTACCCGCAGA (sugars k3 d10 k3, PS), for which the target mRNA inhibition (SK-MEL-28, 4 µM) came to 26%. As to CCCAGTCTACTGCTGT (sugars k3 d10 k3, PS), the target mRNA inhibition (SK-MEL-28, 4 µM) amounted to 66%. Regarding GGTGAGAGACGAAAAC (sugars k3 d10 k3, PS), where the note is “MM.1R, 1 µM”, the target mRNA inhibition was -16%. For the sequence TCCAGATGCAGATTCC (sugars k3 d10 k3, PS), under “SK-MEL-28, 4 µM”, the target mRNA inhibition was 46%.

For TCGCAGGCAGTTGTGC (sugars k3 d10 k3, PS), where the note is “SK-MEL-28, 4 µM”, the target mRNA inhibition is -20%. Consider “TGCTTGAGGTTTTCCT (sugars kkkddddddddkekek, PS)”, for which the target mRNA inhibition (MM.1R, 1 µM) was 27%.
